Activity calls are given as the source filed them.
What was measured:
Type in all cases: functional, organism-based
Plasmodium falciparum [1] = assay: Antimalarial activity against chloroquine-sensitive Plasmodium falciparum D6
Pseudomonas aeruginosa = assay: Antimicrobial activity against Pseudomonas aeruginosa ATCC 27853
[2] = tested on: Mycobacterium intracellulare; assay: Antimicrobial activity against Mycobacterium intracellulare ATCC 23068
Plasmodium falciparum [3] = assay: Antimalarial activity against chloroquine-resistant Plasmodium falciparum W2
Aspergillus fumigatus = assay: Antimicrobial activity against Aspergillus fumigatus ATCC 90906
Escherichia coli = assay: Antimicrobial activity against Escherichia coli ATCC 35218
Cryptococcus neoformans = assay: Antimicrobial activity against Cryptococcus neoformans ATCC 90113
Staphylococcus aureus = assay: Antimicrobial activity against methicillin-resistant Staphylococcus aureus ATCC 43300
Candida albicans = assay: Antimicrobial activity against Candida albicans ATCC 90028

Measured: Activity

C=C1C[C@@]23CC[C@H]4[C@@](C)(CCC[C@@]4(C)C(=O)O[C@@H]4O[C@H](CO)[C@@H](O)[C@H](O)[C@H]4O[C@@H]4O[C@H](CO)[C@@H](O)[C@H](O)[C@H]4O)[C@@H]2CC[C@]1(O[C@@H]1O[C@H](CO)[C@@H](O)[C@H](O)[C@H]1O)C3
inactive: Plasmodium falciparum [1] | Pseudomonas aeruginosa | [2] | Plasmodium falciparum [3] | Aspergillus fumigatus | Escherichia coli | Cryptococcus neoformans | Staphylococcus aureus | Candida albicans

C=C1C[C@@]23CC[C@H]4[C@@](C)(CCC[C@@]4(C)C(=O)O[C@@H]4O[C@H](CO)[C@@H](O)[C@H](O)[C@H]4O)[C@@H]2CC[C@]1(O[C@@H]1O[C@H](CO)[C@@H](O)[C@H](O)[C@H]1O[C@@H]1O[C@H](CO)[C@@H](O)[C@H](O)[C@H]1O)C3
inactive: Plasmodium falciparum [1] | Pseudomonas aeruginosa | [2] | Plasmodium falciparum [3] | Aspergillus fumigatus | Escherichia coli | Cryptococcus neoformans | Staphylococcus aureus | Candida albicans

C=C1C[C@@]23CC[C@H]4[C@@](C)(CCC[C@@]4(C)C(=O)O[C@@H]4O[C@H](CO)[C@@H](O)[C@H](O)[C@H]4O)[C@@H]2CC[C@]1(O[C@@H]1O[C@H](C)[C@@H](O)[C@H](O)[C@@H]1O[C@@H]1O[C@H](CO)[C@@H](O)[C@H](O)[C@H]1O)C3
inactive: Pseudomonas aeruginosa | [2] | Aspergillus fumigatus | Escherichia coli | Cryptococcus neoformans | Staphylococcus aureus | Candida albicans

C=C1C[C@@]23CC[C@H]4[C@@](C)(CCC[C@@]4(C)C(=O)O[C@@H]4O[C@H](CO)[C@@H](O)[C@H](O)[C@H]4O)[C@@H]2CC[C@]1(O[C@@H]1O[C@H](CO)[C@@H](O)[C@H](O)[C@H]1O[C@@H]1O[C@H](CO)[C@@H](O)[C@H](O[C@@H]2O[C@H](CO)[C@@H](O)[C@H](O)[C@H]2O)[C@H]1O)C3
inactive: Pseudomonas aeruginosa | [2] | Aspergillus fumigatus | Escherichia coli | Cryptococcus neoformans | Staphylococcus aureus | Candida albicans

C=C1C[C@@]23CC[C@H]4[C@@](C)(CCC[C@@]4(C)C(=O)O[C@@H]4O[C@H](CO)[C@@H](O)[C@H](O)[C@H]4O[C@@H]4O[C@H](CO)[C@@H](O)[C@H](O)[C@H]4O)[C@@H]2CC[C@]1(O[C@@H]1O[C@H](CO)[C@@H](O)[C@H](O[C@@H]2O[C@H](CO)[C@@H](O)[C@H](O)[C@H]2O)[C@H]1O[C@@H]1O[C@H](CO)[C@@H](O)[C@H](O)[C@H]1O)C3
inactive: Pseudomonas aeruginosa | [2] | Aspergillus fumigatus | Escherichia coli | Cryptococcus neoformans | Staphylococcus aureus | Candida albicans

C=C1C[C@@]23CC[C@H]4[C@@](C)(CCC[C@@]4(C)C(=O)O[C@@H]4O[C@H](CO)[C@@H](O)[C@H](O)[C@H]4O)[C@@H]2CC[C@]1(O[C@@H]1O[C@H](C)[C@@H](O)[C@H](O)[C@@H]1O[C@@H]1O[C@H](CO)[C@@H](O)[C@H](O[C@@H]2O[C@H](CO)[C@@H](O)[C@H](O)[C@H]2O)[C@H]1O)C3
inactive: Pseudomonas aeruginosa | [2] | Aspergillus fumigatus | Escherichia coli | Cryptococcus neoformans | Staphylococcus aureus | Candida albicans

C=C1C[C@@]23CC[C@H]4[C@@](C)(CCC[C@@]4(C)C(=O)O)[C@@H]2CC[C@]1(O[C@@H]1O[C@@H](CO)[C@@H](O[C@@H]2O[C@@H](CO)[C@@H](O)[C@H](O)[C@@H]2O)[C@H](O)[C@@H]1O[C@@H]1O[C@@H](CO)[C@@H](O)[C@H](O)[C@@H]1O)C3
inactive: Pseudomonas aeruginosa | [2] | Aspergillus fumigatus | Escherichia coli | Cryptococcus neoformans | Staphylococcus aureus | Candida albicans

C=C1C[C@@]23CC[C@H]4[C@@](C)(CCC[C@@]4(C)C(=O)O[C@@H]4O[C@H](CO)[C@@H](O)[C@H](O)[C@H]4O)[C@@H]2CC[C@]1(O[C@@H]1O[C@H](CO)[C@@H](O)[C@H](O[C@@H]2OC[C@@H](O)[C@H](O)[C@H]2O)[C@H]1O[C@@H]1O[C@H](CO)[C@@H](O)[C@H](O)[C@H]1O)C3
inactive: Pseudomonas aeruginosa | [2] | Aspergillus fumigatus | Escherichia coli | Cryptococcus neoformans | Staphylococcus aureus | Candida albicans

— ChEMBL document CHEMBL3286183, “Minor diterpene glycosides from the leaves of Stevia rebaudiana” (J Nat Prod, 2014)
